Among the data in ChEMBL document CHEMBL5465560, “Selectivity Literature for EUbOPEN Chemogenomic Library” (2024) are % of control, % of inhibition and % of growth rate values, retold here.

Molecules are shown by their SMILES.

Test [1] addresses Tyrosine-protein kinase HCK (Homo sapiens) (UniProt P08631). Briefly: Selectivity interaction (ProQinase) EUB0000171b HCK.
Test [2] has as its target T1, Tyrosine-protein kinase JAK3 (Homo sapiens) (UniProt P52333).
T1 sequence (whole entry): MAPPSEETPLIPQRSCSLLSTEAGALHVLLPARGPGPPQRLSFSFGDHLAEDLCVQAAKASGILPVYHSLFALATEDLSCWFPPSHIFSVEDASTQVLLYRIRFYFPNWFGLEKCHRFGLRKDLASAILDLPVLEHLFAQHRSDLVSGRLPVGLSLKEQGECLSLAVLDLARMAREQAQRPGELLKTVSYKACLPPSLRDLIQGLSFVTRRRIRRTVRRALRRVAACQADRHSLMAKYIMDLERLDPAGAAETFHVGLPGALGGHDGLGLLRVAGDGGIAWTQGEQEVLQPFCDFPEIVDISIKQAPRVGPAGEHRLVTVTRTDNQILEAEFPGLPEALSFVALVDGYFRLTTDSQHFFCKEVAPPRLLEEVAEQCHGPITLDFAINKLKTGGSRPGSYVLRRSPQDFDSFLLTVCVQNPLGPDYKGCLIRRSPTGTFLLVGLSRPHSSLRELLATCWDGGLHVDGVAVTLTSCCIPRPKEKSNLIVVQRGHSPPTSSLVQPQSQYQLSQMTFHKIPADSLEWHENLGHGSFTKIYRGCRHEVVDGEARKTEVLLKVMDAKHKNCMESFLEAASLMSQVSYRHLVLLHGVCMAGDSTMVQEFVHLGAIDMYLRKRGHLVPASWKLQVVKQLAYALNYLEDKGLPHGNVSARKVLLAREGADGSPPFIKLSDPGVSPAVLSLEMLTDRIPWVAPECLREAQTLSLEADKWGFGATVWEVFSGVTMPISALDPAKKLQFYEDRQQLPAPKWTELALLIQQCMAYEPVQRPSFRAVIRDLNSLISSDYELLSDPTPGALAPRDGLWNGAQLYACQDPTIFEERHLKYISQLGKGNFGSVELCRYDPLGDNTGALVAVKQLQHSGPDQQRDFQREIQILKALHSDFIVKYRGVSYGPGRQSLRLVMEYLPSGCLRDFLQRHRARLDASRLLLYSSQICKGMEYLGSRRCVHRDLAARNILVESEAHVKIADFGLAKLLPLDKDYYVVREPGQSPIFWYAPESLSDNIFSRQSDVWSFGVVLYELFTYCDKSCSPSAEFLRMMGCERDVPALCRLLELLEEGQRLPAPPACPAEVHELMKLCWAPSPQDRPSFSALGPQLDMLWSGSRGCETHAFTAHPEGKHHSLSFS
The settings on record: at 10 µM.

The target in test [3] is T2, Serine/threonine-protein kinase Sgk1 (Homo sapiens) (UniProt O00141).
T2 sequence (whole entry): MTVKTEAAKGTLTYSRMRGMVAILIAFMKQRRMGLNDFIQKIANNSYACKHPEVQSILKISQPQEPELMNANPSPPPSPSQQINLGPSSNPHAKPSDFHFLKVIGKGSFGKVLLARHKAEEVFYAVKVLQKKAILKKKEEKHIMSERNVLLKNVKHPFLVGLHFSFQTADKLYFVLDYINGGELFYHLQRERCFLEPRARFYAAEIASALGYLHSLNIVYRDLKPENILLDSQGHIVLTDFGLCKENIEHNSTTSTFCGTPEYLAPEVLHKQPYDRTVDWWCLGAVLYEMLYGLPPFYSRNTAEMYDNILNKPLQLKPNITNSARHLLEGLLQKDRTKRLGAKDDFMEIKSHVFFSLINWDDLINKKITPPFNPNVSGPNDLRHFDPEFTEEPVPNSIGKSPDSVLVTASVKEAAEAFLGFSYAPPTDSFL
Put plainly: Selectivity interaction (Ambit KINOMEscan and KiNATiv profiling in Jurkat cells) EUB0000090b SGK1. It is filed as cell-based. The settings on record: at 1 µM.

Test [4] concerns the target Serine/threonine-protein kinase 35 (Homo sapiens) (UniProt Q8TDR2). Briefly: Selectivity interaction (KinomeScan (DiscoverX)) EUB0000655a STK35. The settings on record: at 10 µM.
For test [5], the target named is Interferon-induced, double-stranded RNA-activated protein kinase (Homo sapiens) (UniProt P19525). Briefly: Selectivity interaction (KinomeScan (DiscoverX)) EUB0000655a EIF2AK2. The settings on record: at 10 µM.
The target in test [6] is Serine/threonine-protein kinase 32C (Homo sapiens) (UniProt Q86UX6). Put plainly: Selectivity interaction (KinomeScan (DiscoverX)) EUB0000695a STK32C. The settings on record: at 100 nM.
The target in a further test is Cannabinoid receptor 1 (Homo sapiens, UniProt P21554). Put plainly: Selectivity interaction (Panel of non-epigenetic targets (kinases, GPCRs, ion channels, and transporters, Eurofins) ) EUB0000271b CNR1. The settings on record: at 1 µM.
Test [7] concerns the target Serine/threonine-protein kinase N2 (Homo sapiens, UniProt Q16513). Briefly: Selectivity interaction (LanthaScreen Eu Kinase Binding Assay) EUB0001632a PKN2. The settings on record: at 10 µM. For orientation: In TR-FRET formats the signal depends on donor and acceptor labels being close together.
For test [8], the target named is T3, Histone-arginine methyltransferase CARM1 (Homo sapiens) (UniProt Q86X55).
T3 sequence (whole entry): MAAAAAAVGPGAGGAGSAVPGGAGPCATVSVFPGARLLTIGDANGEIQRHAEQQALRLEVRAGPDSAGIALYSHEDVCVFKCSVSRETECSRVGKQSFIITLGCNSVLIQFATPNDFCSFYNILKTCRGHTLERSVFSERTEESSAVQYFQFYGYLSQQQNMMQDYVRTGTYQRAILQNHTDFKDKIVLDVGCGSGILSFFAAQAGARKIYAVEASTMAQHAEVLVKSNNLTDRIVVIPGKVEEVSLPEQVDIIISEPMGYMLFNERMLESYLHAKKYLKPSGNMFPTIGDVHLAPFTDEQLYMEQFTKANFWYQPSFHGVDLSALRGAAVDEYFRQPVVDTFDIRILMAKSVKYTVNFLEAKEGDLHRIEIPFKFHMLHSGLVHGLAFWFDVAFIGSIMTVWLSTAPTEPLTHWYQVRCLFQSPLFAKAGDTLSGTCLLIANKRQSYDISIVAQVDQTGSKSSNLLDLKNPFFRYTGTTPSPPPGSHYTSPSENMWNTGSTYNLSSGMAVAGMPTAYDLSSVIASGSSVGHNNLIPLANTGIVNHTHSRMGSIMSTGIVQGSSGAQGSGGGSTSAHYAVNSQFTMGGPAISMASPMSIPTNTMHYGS
The settings on record: KMS-11, at 3 µM.

Tyrosine-protein kinase HCK (Homo sapiens), sequence (P08631 2-526 limits assumed): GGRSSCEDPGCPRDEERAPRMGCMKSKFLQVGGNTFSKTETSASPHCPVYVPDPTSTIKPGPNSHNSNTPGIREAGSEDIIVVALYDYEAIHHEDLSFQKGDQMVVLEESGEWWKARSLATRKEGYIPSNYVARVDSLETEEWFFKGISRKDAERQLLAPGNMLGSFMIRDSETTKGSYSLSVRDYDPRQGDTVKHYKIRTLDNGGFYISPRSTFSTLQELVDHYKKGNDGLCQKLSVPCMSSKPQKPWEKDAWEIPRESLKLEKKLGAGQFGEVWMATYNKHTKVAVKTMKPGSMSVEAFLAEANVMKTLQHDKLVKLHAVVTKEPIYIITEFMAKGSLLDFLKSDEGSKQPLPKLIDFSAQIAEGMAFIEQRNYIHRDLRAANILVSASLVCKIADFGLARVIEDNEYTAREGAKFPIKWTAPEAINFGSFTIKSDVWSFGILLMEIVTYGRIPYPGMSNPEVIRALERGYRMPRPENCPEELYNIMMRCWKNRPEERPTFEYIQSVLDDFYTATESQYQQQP
Cannabinoid receptor 1, sequence (P21554 whole entry): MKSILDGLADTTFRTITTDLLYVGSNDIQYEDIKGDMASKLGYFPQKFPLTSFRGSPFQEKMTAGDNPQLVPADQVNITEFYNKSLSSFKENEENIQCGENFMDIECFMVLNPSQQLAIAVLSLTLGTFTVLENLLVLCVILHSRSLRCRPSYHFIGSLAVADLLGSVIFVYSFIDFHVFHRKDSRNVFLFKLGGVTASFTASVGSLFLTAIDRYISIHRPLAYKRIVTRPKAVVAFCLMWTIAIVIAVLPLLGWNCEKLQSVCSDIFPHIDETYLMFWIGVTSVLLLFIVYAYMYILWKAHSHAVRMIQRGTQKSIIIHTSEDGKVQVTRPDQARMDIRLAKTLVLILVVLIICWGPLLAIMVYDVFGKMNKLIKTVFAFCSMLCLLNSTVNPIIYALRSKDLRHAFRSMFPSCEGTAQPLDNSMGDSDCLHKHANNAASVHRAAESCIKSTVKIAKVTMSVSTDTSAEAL
Serine/threonine-protein kinase 32C (Homo sapiens), sequence (Q86UX6 whole entry): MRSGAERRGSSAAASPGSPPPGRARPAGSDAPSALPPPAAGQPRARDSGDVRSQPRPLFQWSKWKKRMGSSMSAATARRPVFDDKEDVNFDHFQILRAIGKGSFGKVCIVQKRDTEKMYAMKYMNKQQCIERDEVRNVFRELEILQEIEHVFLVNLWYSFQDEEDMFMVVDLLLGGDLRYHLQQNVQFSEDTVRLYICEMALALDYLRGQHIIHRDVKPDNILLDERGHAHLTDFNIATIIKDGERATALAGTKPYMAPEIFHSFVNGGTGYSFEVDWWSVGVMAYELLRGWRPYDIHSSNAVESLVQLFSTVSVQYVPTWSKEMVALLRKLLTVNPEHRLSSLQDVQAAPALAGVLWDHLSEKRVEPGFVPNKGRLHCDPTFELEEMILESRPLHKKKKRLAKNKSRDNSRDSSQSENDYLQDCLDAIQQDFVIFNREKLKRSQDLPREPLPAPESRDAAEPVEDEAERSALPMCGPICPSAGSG
Serine/threonine-protein kinase 35 (Homo sapiens), sequence (Q8TDR2 whole entry): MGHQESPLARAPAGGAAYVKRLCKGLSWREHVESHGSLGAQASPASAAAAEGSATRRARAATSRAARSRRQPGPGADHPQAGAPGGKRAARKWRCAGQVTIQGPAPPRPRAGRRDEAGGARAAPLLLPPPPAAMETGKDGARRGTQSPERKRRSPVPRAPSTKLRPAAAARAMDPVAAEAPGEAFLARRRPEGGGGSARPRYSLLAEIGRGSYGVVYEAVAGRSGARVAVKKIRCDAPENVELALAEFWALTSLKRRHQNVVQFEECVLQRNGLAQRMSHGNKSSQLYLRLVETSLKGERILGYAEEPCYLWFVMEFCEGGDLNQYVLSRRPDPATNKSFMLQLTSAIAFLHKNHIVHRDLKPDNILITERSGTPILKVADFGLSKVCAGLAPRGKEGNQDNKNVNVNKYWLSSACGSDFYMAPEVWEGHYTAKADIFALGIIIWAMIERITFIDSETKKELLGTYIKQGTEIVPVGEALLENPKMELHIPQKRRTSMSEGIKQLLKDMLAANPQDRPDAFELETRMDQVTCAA
Interferon-induced, double-stranded RNA-activated protein kinase (Homo sapiens), sequence (P19525 whole entry): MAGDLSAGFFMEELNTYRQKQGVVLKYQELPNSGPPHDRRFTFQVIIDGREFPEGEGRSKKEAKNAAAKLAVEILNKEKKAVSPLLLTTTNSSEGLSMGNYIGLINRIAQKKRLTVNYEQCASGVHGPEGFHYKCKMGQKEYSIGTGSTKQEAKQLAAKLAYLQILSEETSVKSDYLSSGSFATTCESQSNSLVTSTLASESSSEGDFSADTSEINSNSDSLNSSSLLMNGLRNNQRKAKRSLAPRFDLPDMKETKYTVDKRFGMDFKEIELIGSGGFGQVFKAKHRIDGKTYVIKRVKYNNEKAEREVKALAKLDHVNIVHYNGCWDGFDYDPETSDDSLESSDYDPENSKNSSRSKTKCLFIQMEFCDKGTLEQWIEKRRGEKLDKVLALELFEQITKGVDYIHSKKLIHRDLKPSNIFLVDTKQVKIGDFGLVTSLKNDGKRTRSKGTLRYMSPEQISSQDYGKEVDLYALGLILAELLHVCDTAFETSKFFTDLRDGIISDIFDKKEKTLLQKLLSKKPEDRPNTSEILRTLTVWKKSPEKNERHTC
Serine/threonine-protein kinase N2, sequence (Q16513 whole entry, looked up): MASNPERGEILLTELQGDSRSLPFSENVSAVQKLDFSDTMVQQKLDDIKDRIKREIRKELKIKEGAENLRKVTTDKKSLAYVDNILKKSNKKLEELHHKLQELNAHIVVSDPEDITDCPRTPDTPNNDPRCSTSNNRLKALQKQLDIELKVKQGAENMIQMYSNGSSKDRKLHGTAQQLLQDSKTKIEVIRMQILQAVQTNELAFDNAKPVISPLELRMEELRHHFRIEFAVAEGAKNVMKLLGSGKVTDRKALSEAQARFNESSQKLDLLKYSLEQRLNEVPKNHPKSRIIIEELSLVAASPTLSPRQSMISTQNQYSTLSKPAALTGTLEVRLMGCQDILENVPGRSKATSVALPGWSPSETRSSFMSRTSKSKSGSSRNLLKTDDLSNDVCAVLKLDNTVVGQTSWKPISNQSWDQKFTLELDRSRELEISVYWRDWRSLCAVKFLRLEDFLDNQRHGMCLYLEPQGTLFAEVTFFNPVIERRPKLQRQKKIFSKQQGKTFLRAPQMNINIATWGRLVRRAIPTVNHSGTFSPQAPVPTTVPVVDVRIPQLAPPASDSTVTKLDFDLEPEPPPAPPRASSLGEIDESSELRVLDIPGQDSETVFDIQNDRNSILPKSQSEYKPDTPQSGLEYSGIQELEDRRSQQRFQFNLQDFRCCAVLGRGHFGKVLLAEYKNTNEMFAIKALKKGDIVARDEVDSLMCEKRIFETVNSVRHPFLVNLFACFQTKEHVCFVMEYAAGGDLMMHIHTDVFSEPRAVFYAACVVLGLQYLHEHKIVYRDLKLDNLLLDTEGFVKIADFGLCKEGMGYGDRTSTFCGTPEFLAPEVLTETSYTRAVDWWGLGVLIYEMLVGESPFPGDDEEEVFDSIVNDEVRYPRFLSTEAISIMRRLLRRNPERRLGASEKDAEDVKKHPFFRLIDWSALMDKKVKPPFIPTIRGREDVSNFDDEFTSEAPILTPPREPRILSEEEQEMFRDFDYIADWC

On to `C=CC(=O)Nc1cccc(C(=O)Nc2ccc(Nc3cc(-c4[nH]c(SC)nc4C)ccn3)cc2)c1`, for which the % of control in [1] (at 1 µM) is 105%; in test [1] (at 5 µM) it was 88%.
`Cc1cc([C@@H](C)Nc2ccccc2C(=O)O)c2nc(N3CCOCC3)cc(=O)n2c1` [AZD-6482] registered a % of control in [2] of 94%.
`CN(C)C/C=C/C(=O)Nc1ccc(C(=O)N2CCCC(Nc3ncc(Cl)c(-c4c[nH]c5ccccc45)n3)C2)cc1` (stereo not given): the % of control in [3] came to 99%.
Take `CN(C)CCOc1ccc(-c2nc(-c3ccncc3)c(-c3ccc4c(c3)CC/C4=N\O)[nH]2)cc1`: the % of control in test [4] amounted to 100%; in test [5] it was 61%.
Compound `Cc1cc(F)c(C(=O)Nc2cccc(-c3nncn3C(C)C)n2)cc1-n1cnc(C2CC2)c1` displayed a % of control in test [6] of 100%.
For the compound `Cc1cc(C)cc([C@@H]2c3cc(C)ccc3NC(=O)CN2C(=O)c2ccc(Br)s2)c1`, the % of inhibition on Cannabinoid receptor 1 was -20%.
On to `Cn1cc(-n2cnc3c(NCc4nc5cc(Cl)c(Cl)cc5[nH]4)nc(N4CCOCC4)nc32)cn1`, for which the % of inhibition in test [7] is -5.46%.
For `CNCCN1CCC(c2cc(CN(C)C(=O)c3cccc(Oc4ccccc4)c3)ccn2)CC1`, the % of growth rate in test [8] is -17.2%.
